From publication PMC8459971, “Evaluation of the hepatotoxicity of the novel GPR40 (FFAR1) agonist CPL207280 in the rat and monkey” (PLoS ONE, 2021)
“And” between values parts separate entries of the source, which are not always exact repeats. Identical values can stand only once.

Experiments:
[1] = Stability in microsomes, rat; format: in vitro ADME; settings: for average DEG [%]: rat microsomes, with cofactors
Protocol: The final incubation volume was 500 μL. Two control compounds (verapamil and donepezil) were included for each microsomal species, along with the appropriate vehicle control. The reactions were terminated by transferring 50 μL of incubate to 100 μL methanol containing an internal standard (metoprolol) at appropriate time points (0, 10, 20, 40, 60, and 120 min for the test compound and 0, 5, 10, 20, 40, and 60 min for the control compounds). The termination plates were centrifuged at 4000 x g at 4°C for 30 min to precipitate the protein. The supernatants were then collected for analysis, and LC-MS/MS was used for detection purposes. The system consisted of an Acquity™ Binary Solvent Manager, Acquity™ 4-position heated column manager, 2777 Ultra High Pressure Autosampler, and a Xevo-TQ MS triple quadrupole mass spectrometer (Waters Ltd., Herts, UK). This process was carried out twice.

NTCP = target: T1, NTCP (Homo sapiens, UniProt Q14973); test: Uptake transporter inhibition assay, NTCP; format: cell-based; settings: for Accumulation (counts per minute; CPM) HEK293-NTCP / Accumulation (counts per minute; CPM) HEK293FT-MOCK: NTCP
T1 construct: expressed in transfected cells; host or cells: HEK cells
T1 sequence (Q14973 1-349): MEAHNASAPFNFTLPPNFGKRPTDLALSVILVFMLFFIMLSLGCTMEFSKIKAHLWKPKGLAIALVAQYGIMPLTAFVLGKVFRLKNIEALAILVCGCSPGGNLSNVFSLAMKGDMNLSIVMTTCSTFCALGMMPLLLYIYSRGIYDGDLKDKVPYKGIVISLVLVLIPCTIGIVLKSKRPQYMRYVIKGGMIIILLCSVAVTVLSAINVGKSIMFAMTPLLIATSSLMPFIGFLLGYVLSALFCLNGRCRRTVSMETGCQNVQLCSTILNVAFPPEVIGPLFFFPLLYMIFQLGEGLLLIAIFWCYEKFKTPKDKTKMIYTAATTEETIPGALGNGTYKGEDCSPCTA
Protocol: For the uptake transporter inhibition assay, cells were washed twice with 100 μL of the appropriate buffer (HK, pH 7.4) for OATP1B1, followed by HBSS (pH 7.4) for (NTCP, OAT1, OAT2v1, OATP1A2, and OATP1B3). Uptake experiments were carried out at 37 ± 1°C in 50 μL of the respective buffer containing the probe substrate and the compound or solvent.

in vivo = settings: both, Wistar Han, rat, 600 mg/kg, 14 days
BSEP = BSEP (Homo sapiens, UniProt O95342); test: Vesicular transport inhibition assay, BSEP
BSEP, sequence (O95342 whole entry): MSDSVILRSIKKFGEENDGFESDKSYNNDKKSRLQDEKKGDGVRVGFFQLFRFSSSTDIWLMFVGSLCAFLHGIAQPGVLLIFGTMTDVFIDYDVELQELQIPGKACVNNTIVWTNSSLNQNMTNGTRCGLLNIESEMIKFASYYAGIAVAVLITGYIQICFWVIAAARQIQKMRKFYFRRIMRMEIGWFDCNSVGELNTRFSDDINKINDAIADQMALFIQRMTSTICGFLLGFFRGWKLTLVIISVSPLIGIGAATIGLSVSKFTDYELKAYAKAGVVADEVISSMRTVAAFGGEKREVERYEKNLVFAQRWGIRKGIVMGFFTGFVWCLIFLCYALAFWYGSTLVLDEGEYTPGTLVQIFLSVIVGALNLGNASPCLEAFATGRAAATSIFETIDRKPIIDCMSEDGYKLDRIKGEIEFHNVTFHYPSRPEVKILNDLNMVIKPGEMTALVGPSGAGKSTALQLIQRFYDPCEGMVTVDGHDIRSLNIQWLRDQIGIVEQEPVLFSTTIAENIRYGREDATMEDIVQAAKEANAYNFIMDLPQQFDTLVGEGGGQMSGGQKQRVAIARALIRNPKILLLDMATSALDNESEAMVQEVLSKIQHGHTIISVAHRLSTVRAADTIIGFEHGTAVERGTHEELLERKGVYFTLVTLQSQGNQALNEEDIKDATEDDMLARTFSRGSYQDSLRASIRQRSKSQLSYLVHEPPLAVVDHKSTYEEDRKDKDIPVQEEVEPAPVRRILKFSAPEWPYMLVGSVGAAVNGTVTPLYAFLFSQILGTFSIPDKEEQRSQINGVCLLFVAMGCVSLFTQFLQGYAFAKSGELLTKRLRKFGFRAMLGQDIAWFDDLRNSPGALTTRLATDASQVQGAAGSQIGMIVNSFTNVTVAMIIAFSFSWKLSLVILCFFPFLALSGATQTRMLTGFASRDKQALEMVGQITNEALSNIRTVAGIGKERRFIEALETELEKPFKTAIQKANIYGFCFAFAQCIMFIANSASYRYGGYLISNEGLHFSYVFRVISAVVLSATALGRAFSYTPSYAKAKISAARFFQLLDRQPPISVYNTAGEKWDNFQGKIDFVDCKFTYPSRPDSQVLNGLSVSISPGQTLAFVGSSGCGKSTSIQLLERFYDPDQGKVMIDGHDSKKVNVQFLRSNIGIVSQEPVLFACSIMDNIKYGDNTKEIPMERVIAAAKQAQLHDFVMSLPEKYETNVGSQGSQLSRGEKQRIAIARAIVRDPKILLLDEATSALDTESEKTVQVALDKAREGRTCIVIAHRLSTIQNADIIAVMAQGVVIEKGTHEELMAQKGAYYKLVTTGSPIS
Protocol: In the vesicular transport inhibition assay (for BSEP, MRP) compounds were incubated with membrane vesicle preparations and the probe substrate. Incubations were carried out in the presence of 4 mM ATP or AMP to distinguish between transporter-mediated uptake and passive diffusion into the vesicles. For MRP2 and MRP3, reactions were carried out in the presence of 2 mM glutathione. Compounds were added to the reaction mixture in 0.75 μL of solvent (1% of the final incubation volume). […] Reactions were initiated by the addition of 25 μL of 12 mM MgATP (or 12 mM AMP in assay buffer as a background control) and preincubated separately. Reactions were quenched by the addition of 200 μL of ice-cold washing buffer and immediate filtration via glass fiber filters mounted on a 96-well plate (filter plate). The filters were washed (5 × 200 μL of ice-cold washing buffer), dried, and the amount of substrate inside the filtered vesicles was determined by liquid scintillation counting.

OATP1A2 = OATP1A2 (Homo sapiens, UniProt P46721); test: Uptake transporter inhibition assay, OATP1A2; settings: for Accumulation (counts per minute; CPM) HEK293FT-MOCK / Accumulation (counts per minute; CPM) HEK293FT-OATP1A2: OATP1A2;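 note: cellular uptake of a radiolabeled probe substrate in HBSS pH 7.4 at 37 °C with test compound or solvent, measured by liquid scintillation counting of cell lysates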
OATP1A2, sequence (P46721 whole entry): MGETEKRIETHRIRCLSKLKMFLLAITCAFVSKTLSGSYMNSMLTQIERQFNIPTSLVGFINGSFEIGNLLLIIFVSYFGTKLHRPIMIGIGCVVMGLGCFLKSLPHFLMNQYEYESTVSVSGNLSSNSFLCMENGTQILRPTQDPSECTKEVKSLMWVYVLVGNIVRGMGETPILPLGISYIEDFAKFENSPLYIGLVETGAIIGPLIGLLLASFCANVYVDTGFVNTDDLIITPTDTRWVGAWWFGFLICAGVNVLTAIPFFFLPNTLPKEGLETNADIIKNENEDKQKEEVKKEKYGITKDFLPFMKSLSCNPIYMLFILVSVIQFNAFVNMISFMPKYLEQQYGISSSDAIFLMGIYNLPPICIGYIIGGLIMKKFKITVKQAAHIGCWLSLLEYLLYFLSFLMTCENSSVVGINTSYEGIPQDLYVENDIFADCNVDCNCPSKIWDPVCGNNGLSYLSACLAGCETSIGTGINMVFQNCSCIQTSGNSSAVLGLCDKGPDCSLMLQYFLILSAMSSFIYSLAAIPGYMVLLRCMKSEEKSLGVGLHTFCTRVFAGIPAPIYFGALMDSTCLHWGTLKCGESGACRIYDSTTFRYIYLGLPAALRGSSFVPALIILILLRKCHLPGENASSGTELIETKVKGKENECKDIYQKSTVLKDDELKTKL
Protocol: (§1) For the uptake transporter inhibition assay, cells were washed twice with 100 μL of the appropriate buffer (HK, pH 7.4) for OATP1B1, followed by HBSS (pH 7.4) for (NTCP, OAT1, OAT2v1, OATP1A2, and OATP1B3). Uptake experiments were carried out at 37 ± 1°C in 50 μL of the respective buffer containing the probe substrate and the compound or solvent. […] After the experiment, cells were washed twice with 100 μL of cold appropriate buffer and lysed with 50 μL of 0.1 M NaOH. Radiolabeled probe substrate transport was determined by measuring an aliquot (35 μL) from each well for liquid scintillation counting.

OATP1B1 = target: T2, OATP1B1 (Homo sapiens, UniProt Q9Y6L6); test: Uptake transporter inhibition assay, OATP1B1
T2 sequence (Q9Y6L6 1-691): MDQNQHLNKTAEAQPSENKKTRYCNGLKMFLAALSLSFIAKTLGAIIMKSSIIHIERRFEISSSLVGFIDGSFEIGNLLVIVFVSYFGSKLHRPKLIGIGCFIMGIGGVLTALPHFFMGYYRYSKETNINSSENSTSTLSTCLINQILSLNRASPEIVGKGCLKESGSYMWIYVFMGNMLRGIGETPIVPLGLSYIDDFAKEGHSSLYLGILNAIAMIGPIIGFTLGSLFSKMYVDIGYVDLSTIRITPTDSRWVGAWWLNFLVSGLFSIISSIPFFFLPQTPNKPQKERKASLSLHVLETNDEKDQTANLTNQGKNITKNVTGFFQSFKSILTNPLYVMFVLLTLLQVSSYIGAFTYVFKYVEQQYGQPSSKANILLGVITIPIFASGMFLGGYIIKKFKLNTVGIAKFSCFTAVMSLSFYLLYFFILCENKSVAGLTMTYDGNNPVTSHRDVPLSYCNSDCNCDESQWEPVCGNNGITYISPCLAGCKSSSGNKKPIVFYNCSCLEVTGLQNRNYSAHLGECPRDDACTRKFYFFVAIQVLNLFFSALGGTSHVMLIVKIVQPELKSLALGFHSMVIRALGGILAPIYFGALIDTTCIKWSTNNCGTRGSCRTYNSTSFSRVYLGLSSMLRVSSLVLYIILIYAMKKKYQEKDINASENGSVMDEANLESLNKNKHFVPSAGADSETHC
Protocol: as §1

[2] = Pharmacokinetics in mice, serum and liver concentrations; settings: for liver conc / serum conc: mouse, 3 mg/kg p.o., individual animals
Protocol: The mice were separated into four groups of 32 mice per group. […] At time point t = 0, animals received a single dose of the compounds orally. […] Four hours after drug administration, the animals received standard chow. […] After solubilization in extraction buffer, the solutions were shaken for 1 min and then centrifuged for 4 min (4000 x g).

[3] = Rat (Sprague Dawley) microsomes, mean n = 2

## Cc1cc(OCCCS(C)(=O)=O)cc(C)c1-c1cccc(COc2ccc3c(c2)OC[C@H]3CC(=O)O)c1 [TAK-875, fasiglifam, reference compound]
[1]; [3]
  half-life at 3 μM: 1.98 h
  microsomal CLint at 3 μM: 11.6 µL/min/mg
[1]; 0 min
  average DEG [%]: 100.0%
[1]; 20 min
  average DEG [%]: 81.3%
[1]; 40 min
  average DEG [%]: 79.5%
[1]; 60 min
  average DEG [%]: 68.4%
NTCP; conc 0.10 µM
  Accumulation (counts per minute; CPM) HEK293-NTCP: 4946 CPM and 5522 CPM
  Accumulation (counts per minute; CPM) HEK293FT-MOCK: 31 CPM and 28 CPM
NTCP; conc 0.30 µM
  Accumulation (counts per minute; CPM) HEK293-NTCP: 4754 CPM and 4976 CPM
  Accumulation (counts per minute; CPM) HEK293FT-MOCK: 28 CPM and 36 CPM
NTCP; conc 1.00 µM
  Accumulation (counts per minute; CPM) HEK293-NTCP: 4452 CPM and 4849 CPM
  Accumulation (counts per minute; CPM) HEK293FT-MOCK: 23 CPM and 31 CPM
NTCP; conc 3.00 µM
  Accumulation (counts per minute; CPM) HEK293-NTCP: 4304 CPM and 4641 CPM
  Accumulation (counts per minute; CPM) HEK293FT-MOCK: 25 CPM and 22 CPM
NTCP; conc 10.00 µM
  Accumulation (counts per minute; CPM) HEK293-NTCP: 3509 CPM and 4053 CPM
  Accumulation (counts per minute; CPM) HEK293FT-MOCK: 28 CPM and 26 CPM
NTCP; conc 30.00 µM
  Accumulation (counts per minute; CPM) HEK293-NTCP: 2661 CPM and 2656 CPM
  Accumulation (counts per minute; CPM) HEK293FT-MOCK: 25 CPM and 30 CPM
NTCP; conc 100.00 µM
  Accumulation (counts per minute; CPM) HEK293-NTCP: 1608 CPM and 1569 CPM
  Accumulation (counts per minute; CPM) HEK293FT-MOCK: 25 CPM and 33 CPM
NTCP; transformed HEK cells, up to 300μM, n = 2
  IC50: 53.1 µM
In vivo
  exposure exceeding the CPL207280 exposure: 200%
BSEP; conc 0.41 µM
  Accumulation (counts per minute; CPM) HEK293-BSEP: 11727 CPM and 12245 CPM and 11981 CPM
  Accumulation (counts per minute; CPM) HEK293-MOCK: 463 CPM and 375 CPM and 363 CPM
BSEP; conc 1.23 µM
  Accumulation (counts per minute; CPM) HEK293-BSEP: 11757 CPM and 12666 CPM and 12491 CPM
  Accumulation (counts per minute; CPM) HEK293-MOCK: 465 CPM and 378 CPM and 379 CPM
BSEP; conc 3.70 µM
  Accumulation (counts per minute; CPM) HEK293-BSEP: 11540 CPM and 12190 CPM and 12485 CPM
  Accumulation (counts per minute; CPM) HEK293-MOCK: 406 CPM and 443 CPM and 391 CPM
BSEP; conc 11.11 µM
  Accumulation (counts per minute; CPM) HEK293-BSEP: 11930 CPM and 12790 CPM and 12439 CPM
  Accumulation (counts per minute; CPM) HEK293-MOCK: 450 CPM and 398 CPM and 437 CPM
BSEP; conc 33.33 µM
  Accumulation (counts per minute; CPM) HEK293-BSEP: 10294 CPM and 11069 CPM and 10674 CPM
  Accumulation (counts per minute; CPM) HEK293-MOCK: 418 CPM and 356 CPM and 425 CPM
BSEP; conc 100 µM
  Accumulation (counts per minute; CPM) HEK293-BSEP: 6186 CPM and 6483 CPM and 6458 CPM
  Accumulation (counts per minute; CPM) HEK293-MOCK: 375 CPM and 361 CPM and 372 CPM
OATP1A2
  IC50: 10.6 µM
OATP1A2; conc 0.10 µM
  Accumulation (counts per minute; CPM) HEK293FT-MOCK: 142 CPM and 152 CPM
  Accumulation (counts per minute; CPM) HEK293FT-OATP1A2: 10423 CPM and 10027 CPM
OATP1A2; conc 0.30 µM
  Accumulation (counts per minute; CPM) HEK293FT-MOCK: 182 CPM and 209 CPM
  Accumulation (counts per minute; CPM) HEK293FT-OATP1A2: 8846 CPM and 9642 CPM
OATP1A2; conc 1.00 µM
  Accumulation (counts per minute; CPM) HEK293FT-MOCK: 191 CPM and 201 CPM
  Accumulation (counts per minute; CPM) HEK293FT-OATP1A2: 7776 CPM and 7509 CPM
OATP1A2; conc 3.00 µM
  Accumulation (counts per minute; CPM) HEK293FT-MOCK: 170 CPM and 194 CPM
  Accumulation (counts per minute; CPM) HEK293FT-OATP1A2: 6621 CPM and 5348 CPM
OATP1A2; conc 10.00 µM
  Accumulation (counts per minute; CPM) HEK293FT-MOCK: 165 CPM and 156 CPM
  Accumulation (counts per minute; CPM) HEK293FT-OATP1A2: 5408 CPM and 5698 CPM
OATP1A2; conc 30.00 µM
  Accumulation (counts per minute; CPM) HEK293FT-MOCK: 149 CPM and 181 CPM
  Accumulation (counts per minute; CPM) HEK293FT-OATP1A2: 4731 CPM and 4729 CPM
OATP1A2; conc 100.00 µM
  Accumulation (counts per minute; CPM) HEK293FT-MOCK: 205 CPM and 204 CPM
  Accumulation (counts per minute; CPM) HEK293FT-OATP1A2: 2008 CPM and 2199 CPM
OATP1B1
  IC50: 0.49 µM
[2]; mice, single oral dose 3 mg/kg, 15 min to 24 h
  distribution between liver and serum: tended to penetrate the liver more than serum
[2]; 0.5 h, 3 mg/kg
  liver conc: 12066 and 9386 and 11708 and 12618
  serum conc: 993.3 and 360.8 and 908.6 and 651.9
[2]; 1 h, 3 mg/kg
  liver conc: 10596 and 9326 and 7020 and 7420
  serum conc: 1072.6 and 672.7 and 566 and 819
[2]; 2 h, 3 mg/kg
  liver conc: 6580 and 5322 and 5300 and 4227.4
[2]; 4 h, 3 mg/kg
  liver conc: 3742.6 and 2509.2 and 2176.6 and 3530.4
[2]; 7 h, 3 mg/kg
  liver conc: 1827.82 and 413.84 and 1236.2 and 1172.8
  serum conc: 0 and 11.2 and 32.3 and 10
[2]; 12 h, 3 mg/kg
  liver conc: 594.8 and 321.278 and 55.624 and 442.92
  serum conc: 12 and 0 (2×) and 18.6
[2]; 24 h
  serum conc: 0
[2]; 24 h, 3 mg/kg
  liver conc: 449.28 and 67.18 and 37.77 and 209.86
